Assays:
[1] = target: T1, Recombinant Tdp1 (Homo sapiens (Human), UniProt Q9NUW8); assay: AlphaScreen Tdp1 assay (qHTS, FITC/biotin phosphotyrosine DNA substrate); assay type: biochemical
Procedure: Tween-20, KCl, fluorescein isothiocyanate (FITC), and PBS were procured from Sigma-Aldrich. DMSO certified ACS grade was obtained from Fisher. The AlphaScreen FITC/streptavidin detection kit was from PerkinElmer Life and Analytical Sciences (Waltham, Mass.). Assay buffer consisted of PBS, pH 7.4, 80 mM KCl and 0.05% Tween-20. Recombinant Tdp1 was expressed and purified as described elsewhere (Antony et al., Nucleic Acids Research 35:4474-4484 (2007). The Sigma-Aldrich LOPAC^1280 library of 1280 known bioactives was received as DMSO solutions at initial concentration of 10 mM and plated as described elsewhere (Inglese et al., Proc. Natl. Acad. Sci. USA 103:11473-11478 (2006); Yasgar et al., J. Assoc. Lab. Automat. 13:78-89 (2008)).
The biotinylated phosphotyrosine deoxyoligonucleotide (5′ biotin-[…]-pY) was synthesized, purified, and QC-tested by Midland Certified Reagent Company, Midland, Tex. Standard overnight 4° C. FITC coupling was performed in-house. The FITC-labeled substrate was purified on Biospin-6 desalting columns (Bio-Rad, Hercules, Calif.) and its concentration was determined by UV-vis spectrophotometry.
Assay reaction mixtures and substrate/beads titrations were initially performed at 20 μl final volume in 384-well plates. For the subsequent 1,536-well based experiments, Flying Reagent Dispenser (FRD, Aurora Discovery, presently Beckman-Coulter) was used to dispense reagents into the assay plates, while a pintool was used to deliver DMSO solutions of the test inhibitors. Plates were read on Envision plate reader (PerkinElmer) equipped with AlphaScreen optical detection module. For testing the effect of enzyme reaction conditions on the IC50 values for select inhibitors, the respective compounds were prepared as 24-point twofold intra-plate dilution series and assayed as described.
Three μl of reagents (buffer in columns 3 and 4 as negative control and 1.33 nM Tdp1 in columns 1, 2, 5-48) were dispensed into 1,536-well black solid bottom plate. Compounds (final concentrations in the range of 0.7 nM to 57 μM) were transferred via Kalypsys pintool equipped with 1,536-pin array. The plate was incubated for 15 min at room temperature, and then 1 μl of substrate (15 nM final concentration) was added to start the reaction. After 5 min incubation at room temperature, 1 μl of bead mix (15 μg/mL final concentration) was added and the plate was further incubated for 10 min at room temperature prior to signal measurement. Substrate and beads were prepared and kept in amber bottles to prevent photo-degradation. Library plates were screened starting from the lowest and proceeding to the highest concentration. Vehicle-only plates, with DMSO being pin-transferred to the entire column 5-48 compound area, were included at the beginning and the end of the screen in order to record any systematic shifts in assay signal. Screening data were corrected, normalized, and curve-fitted by using in-house developed algorithms.
To configure an assay for Tdp1, we utilized the ability of the AlphaScreen system to report on the integrity of the phosphotyrosine-based substrate, viewed here as a multi-site analyte. The AlphaScreen signal is a direct consequence of the close proximity of donor and acceptor beads, which is achieved by the formation of a ternary donor-analyte-acceptor recognition complex. To realize the AlphaScreen assay using the consensus DNA-pY substrate for Tdp1, 5′[…]pY, recognition elements for both bead types had to be introduced. To this end, we coupled a fluorescein isothiocyanate (FITC) to the amino group of tyrosine in a phosphotyrosine-containing single stranded DNA substrate bearing a biotin at its 5′ end. […] Conversely, if the Tdp1 catalysis was inhibited, an elevated signal would be observed for that sample.

[2] = target: T1, Recombinant Tdp1; assay: Secondary radiolabel gel-based Tdp1 assay (N14Y substrate); assay type: biochemical
Procedure: One nanomolar of 5′-^32P-labeled substrate (N14Y; 5′-[…]-Tyrosine-3′) was incubated with 0.1 nM recombinant Tdp1 in the absence or presence of inhibitor for 20 min at 25° C. in a reaction buffer containing 50 mM Tris-HCl (pH 7.5), 80 mM KCl, 2 mM EDTA, and 40 μg/ml BSA. Reactions were terminated by the addition of one volume of gel loading buffer (96% (v/v) formamide, 10 mM EDTA, 1% (w/v) xylene cyanol and 1% (w/v) bromphenol blue). The samples were subsequently heated to 95° C. for 5 min and subjected to 20% denaturing PAGE. When the Tdp1 mutant H493R (100 nM) was employed, the reactions were stopped with one volume of SDS loading dye and analyzed by 4-20% SDS-PAGE. All gels were dried and exposed on a PhosphorImager screen. Imaging and quantification were done using a Typhoon 8600 and ImageQuant software (GE Healthcare, Piscataway, N.J.).
Activity of certain compounds was also tested in secondary radiolabel gel-based assays (Inamdar et al., J. Biol. Chem. 277:27162-27168 (2002); Davies et al., J. Mol. Biol. 324:917-932 (2002)).

[3] = 1,536-well AlphaScreen qHTS, N/D = not detectable, read-out: Activity (qHTS) IC50
[4] = 1 nM N14Y, 0.1 nM Tdp1, 20 min at 25° C., N/D = not detectable, read-out: Activity (Gel)

T1 sequence (Q9NUW8 whole entry): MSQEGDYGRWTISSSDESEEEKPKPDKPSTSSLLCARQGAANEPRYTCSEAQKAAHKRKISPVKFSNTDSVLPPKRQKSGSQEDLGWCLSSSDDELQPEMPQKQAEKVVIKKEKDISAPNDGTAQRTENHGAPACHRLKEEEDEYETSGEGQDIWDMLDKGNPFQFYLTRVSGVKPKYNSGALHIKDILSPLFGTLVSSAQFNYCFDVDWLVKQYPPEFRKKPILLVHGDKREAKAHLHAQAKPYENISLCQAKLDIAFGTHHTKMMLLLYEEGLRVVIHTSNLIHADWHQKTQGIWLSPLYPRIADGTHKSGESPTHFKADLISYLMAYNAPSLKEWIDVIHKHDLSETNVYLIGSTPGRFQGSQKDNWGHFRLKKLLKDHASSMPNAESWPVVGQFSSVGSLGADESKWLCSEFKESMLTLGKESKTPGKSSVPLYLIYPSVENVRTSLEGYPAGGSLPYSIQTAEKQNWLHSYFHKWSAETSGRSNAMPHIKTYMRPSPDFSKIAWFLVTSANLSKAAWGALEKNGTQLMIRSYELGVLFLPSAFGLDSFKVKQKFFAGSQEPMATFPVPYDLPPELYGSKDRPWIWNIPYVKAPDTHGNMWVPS

Structure (SMILES) | IC50 [1, 3] | IC50 [2, 4] | further results
CN(C)[C@@H]1C(O)=C(C(N)=O)C(=O)[C@@]2(O)C(O)=C3C(=O)c4c(O)cccc4[C@@](C)(O)[C@H]3[C@H](O)[C@@H]12 | 0.5 µM | – | –
CN(C)C1C(O)=C(C(N)=O)C(=O)[C@@]2(O)C(O)=C3C(=O)c4c(O)cccc4[C@](C)(O)C3C(O)C12 (some centres unmarked) | 0.63 µM | 8 µM | –
CN(C)[C@@H]1C(O)=C(C(=O)NCN2CCCC2)C(=O)[C@@]2(O)C(O)=C3C(=O)c4c(O)cccc4[C@@](C)(O)C3CC12 (some centres unmarked) | 0.71 µM | – | –
CN(C)[C@H]1C(O)=C(C(=O)NCN[C@@H](CCCCN)C(=O)O)C(=O)[C@]2(O)C(O)=C3C(=O)c4c(O)cccc4[C@@](C)(O)[C@H]3C[C@@H]12 | 12.6 µM | – | –
CN(C)C1C(O)=C(C(N)=O)C(=O)[C@]2(O)C(O)=C3C(=O)c4c(O)cccc4[C@](C)(O)C3C(O)C12 (some centres unmarked) | 3.16 µM | 10 µM | –
CN(C)[C@H]1C(O)=C(C(=O)NCN2CCCC2)C(=O)[C@]2(O)C(O)=C3C(=O)c4c(O)cccc4[C@@](C)(O)[C@H]3C[C@@H]12 | 1.26 µM | 30.2 µM | –
CN(C)[C@@H]1C(=O)C(C(N)=O)=C(O)[C@@]2(O)C(O)=C3C(=O)c4c(O)cccc4[C@@](C)(O)[C@H]3[C@H](O)[C@@H]12 | – | – | IC50 [1]: 0.4 µM
CN(C)C1C(=O)C(C(N)=O)C(=O)C2(O)C(=O)C3C(=O)c4c(O)cccc4C(C)(O)C3C(O)C12 (centres unmarked) | – | – | IC50 [1]: 0.2 µM; IC50 [2]: 5 µM
CN(C)[C@@H]1C(O)=C(C(N)=O)C(=O)[C@]2(O)C(O)=C3C(=O)c4c(O)cccc4[C@@](C)(O)[C@H]3[C@H](O)[C@@H]12 | 1.59 µM | – | –
CN(C)[C@H]1C(O)=C(C(N)=O)C(=O)[C@]2(O)C(O)=C3C(=O)c4c(O)cccc4[C@@](C)(O)[C@H]3C[C@@H]12 | 14.1 µM | 10 µM | –
CN(C)C1C(O)=C(C(N)=O)C(=O)[C@@]2(O)C(O)=C3C(=O)c4c(O)cccc4[C@@](C)(O)C3CC12.Cl (some centres unmarked) | – | – | Activity (qHTS) IC50 ([1]; 1,536-well AlphaScreen qHTS, N/D = not detectable): IC50: N/D
CN(C)[C@@H]1C(O)=C(C(N)=O)C(=O)[C@]2(O)C(O)=C3C(=O)c4c(O)ccc(Cl)c4[C@](C)(O)[C@H]3C[C@@H]12 | 2.82 µM | 13.2 µM | –
CN(C)C1C(O)=C(C(N)=O)C(=O)[C@@]2(O)C(O)=C3C(=O)c4c(O)ccc(Cl)c4[C@](C)(O)C3CC12 (some centres unmarked) | 3.16 µM | 20 µM | –
CN(C)[C@H]1C(O)=C(C(=O)NCN2CCCC2)C(=O)[C@]2(O)C(O)=C3C(=O)c4c(O)cccc4[C@](C)(O)[C@H]3C[C@H]12 | 0.2 µM | – | IC50 ([2]; 1 nM N14Y, 0.1 nM Tdp1, value printed with question mark, read-out: Activity (Gel)): < 0.1 µM
CN(C)C1C(O)=C(C(N)=O)C(=O)[C@@]2(O)C(O)=C3C(=O)c4c(O)cccc4[C@@](C)(O)C3[C@H](O)C12 (some centres unmarked) | 4.47 µM | 3 µM | –
[O]=[V]([O-])([O-])[O-] [vanadate, reference compound] | – | – | Tdp1 inhibition potency range ([1]; AlphaScreen assay set-up in 384-well plates): sub-millimolar
CN(C)C1C(O)=C(C(N)=O)C(=O)[C@@]2(O)C(O)=C3C(=O)c4c(O)cccc4[C@@](C)(O)C3C[C@@H]12 (some centres unmarked) | 10 µM | – | –

— patent US8865686B2, “Tetracycline compounds as tyrosyl-DNA phosphodiesterase I inhibitors” (The United States of America, as Represented by the …, priority 2006, dated 2014)
